Data taken from patent US20240310368A1, “DETECTION KIT FOR CATECHOLAMINES AND METABOLITES THEREOF IN PLASMA/URINE AND DETECTION METHOD THEREOF” (Calibra Scientific, Inc., priority 2023, published 2024).

Test: Acceleration test of plasma samples with stabilizers (30° C. for 1.5 days, against control plasma stored at −95° C. to −65° C.), LC-MS/MS Area/IS Area
Method: Samples were collected in EDTA-anticoagulant blood collection tubes and then rapidly subjected to […] centrifugation at 2-8° C. to separate plasma. 0.95 mL of the plasma was transferred into centrifuge tubes. After 50 μL of the stabilizer was added for uniform mixing, the plasma samples were stored by refrigeration or freezing.
• (1) 500 μL of plasma/urine samples to be tested were taken, and 50 μL of the internal standard solution and 500 μL of the buffer solution were sequentially added for vertex mixing to obtain diluted samples. • (2) The magnetic medium composite material suspension was subjected to full vortex treatment to reach a suspension state, and then subsequent operation was performed. • (3) Different reagents were added into wells of a preprocessing plate according to the follow operation: adding 200 μL of the magnetic medium composite material suspension in column 1, adding 500 μL of the balance solution in column 2, adding 850 μL of the diluted samples in column 3, adding 500 μL of the balance solution in column 4, adding 200 μL of a rinsing solution in column 5, and adding 100 μL of the elution solution in column 6. • (4) An extraction operation procedure was carried out, as shown in Table 5.
Each group of the plasma samples were stored at 30° C. for 1.5 days, and plasma without addition of any compounds stored at −95° C. to −65° C. was used as a control. […] The stabilizing effect of the single-component stabilizers on the plasma samples was investigated.
The stabilizers were mixed with plasma (the volume ratio of the stabilizers to plasma samples was 1:19), and high concentration plasma samples and low concentration plasma samples were prepared by the method provided in Example 1.
With plasma stored at −95° C. to −65° C. as a control, the above plasma samples were separately stored at 30° C. for 1.5 days to investigate the stability. […]

[1] = plasma at a high concentration level, plasma containing 0.5% of the acid, control plasma 0.624
[2] = plasma at a high concentration level, plasma containing 0.5% of the acid, control plasma 1.522
[3] = plasma at a high concentration level, plasma containing 0.5% of the acid, control plasma 2.27
[4] = plasma at a high concentration level, plasma containing 2.0% of the acid, control plasma 0.624
[5] = plasma at a high concentration level, plasma containing 2.0% of the acid, control plasma 1.522
[6] = plasma at a high concentration level, plasma containing 2.0% of the acid, control plasma 2.27
[7] = plasma at a low concentration level, plasma containing 0.5% of the acid, control plasma 0.079
[8] = plasma at a low concentration level, plasma containing 0.5% of the acid, control plasma 0.219
[9] = plasma at a low concentration level, plasma containing 0.5% of the acid, control plasma 0.233
[10] = plasma at a low concentration level, plasma containing 2.0% of the acid, control plasma 0.079
[11] = plasma at a low concentration level, plasma containing 2.0% of the acid, control plasma 0.219
[12] = plasma at a low concentration level, plasma containing 2.0% of the acid, control plasma 0.233

O=P(O)(O)O [phosphoric acid]
0: Ratio (Area/IS Area) E [1] | Ratio (Area/IS Area) NE [2] | Ratio (Area/IS Area) DA [3] | Ratio (Area/IS Area) E [4] | Ratio (Area/IS Area) NE [5] | Ratio (Area/IS Area) DA [6] | Ratio (Area/IS Area) E [7] | Ratio (Area/IS Area) NE [8] | Ratio (Area/IS Area) DA [9] | Ratio (Area/IS Area) E [10] | Ratio (Area/IS Area) NE [11] | Ratio (Area/IS Area) DA [12]

CC(=O)O [acetic acid]
0: Ratio (Area/IS Area) E [1] | Ratio (Area/IS Area) NE [2] | Ratio (Area/IS Area) DA [3] | Ratio (Area/IS Area) E [4] | Ratio (Area/IS Area) NE [5] | Ratio (Area/IS Area) DA [6] | Ratio (Area/IS Area) E [7] | Ratio (Area/IS Area) NE [8] | Ratio (Area/IS Area) DA [9] | Ratio (Area/IS Area) E [10] | Ratio (Area/IS Area) NE [11] | Ratio (Area/IS Area) DA [12]

O=S([O-])S(=O)(=O)[O-].[Na+].[Na+] [sodium pyrosulfite]
0: Ratio (Area/IS Area) E (plasma at a high concentration level, plasma containing 50 μg/mL of the component, control plasma 0.624) | Ratio (Area/IS Area) NE (plasma at a high concentration level, plasma containing 50 μg/mL of the component, control plasma 1.522) | Ratio (Area/IS Area) DA (plasma at a high concentration level, plasma containing 50 μg/mL of the component, control plasma 2.27) | Ratio (Area/IS Area) E (plasma at a high concentration level, plasma containing 200 μg/mL of the component, control plasma 0.624) | Ratio (Area/IS Area) NE (plasma at a high concentration level, plasma containing 200 μg/mL of the component, control plasma 1.522) | Ratio (Area/IS Area) DA (plasma at a high concentration level, plasma containing 200 μg/mL of the component, control plasma 2.27) | Ratio (Area/IS Area) E (plasma at a low concentration level, plasma containing 50 μg/mL of the component, control plasma 0.079) | Ratio (Area/IS Area) NE (plasma at a low concentration level, plasma containing 50 μg/mL of the component, control plasma 0.219) | Ratio (Area/IS Area) DA (plasma at a low concentration level, plasma containing 50 μg/mL of the component, control plasma 0.233) | Ratio (Area/IS Area) E (plasma at a low concentration level, plasma containing 200 μg/mL of the component, control plasma 0.079) | Ratio (Area/IS Area) NE (plasma at a low concentration level, plasma containing 200 μg/mL of the component, control plasma 0.219) | Ratio (Area/IS Area) DA (plasma at a low concentration level, plasma containing 200 μg/mL of the component, control plasma 0.233)

O=C(O)CC(O)(CC(=O)O)C(=O)O [citric acid]
0: Ratio (Area/IS Area) E (plasma at a high concentration level, plasma containing 500 μg/mL of the component, control plasma 0.624) | Ratio (Area/IS Area) NE (plasma at a high concentration level, plasma containing 500 μg/mL of the component, control plasma 1.522) | Ratio (Area/IS Area) DA (plasma at a high concentration level, plasma containing 500 μg/mL of the component, control plasma 2.27) | Ratio (Area/IS Area) E (plasma at a high concentration level, plasma containing 2,000 μg/mL of the component, control plasma 0.624) | Ratio (Area/IS Area) NE (plasma at a high concentration level, plasma containing 2,000 μg/mL of the component, control plasma 1.522) | Ratio (Area/IS Area) DA (plasma at a high concentration level, plasma containing 2,000 μg/mL of the component, control plasma 2.27) | Ratio (Area/IS Area) E (plasma at a low concentration level, plasma containing 500 μg/mL of the component, control plasma 0.079) | Ratio (Area/IS Area) NE (plasma at a low concentration level, plasma containing 500 μg/mL of the component, control plasma 0.219) | Ratio (Area/IS Area) DA (plasma at a low concentration level, plasma containing 500 μg/mL of the component, control plasma 0.233) | Ratio (Area/IS Area) E (plasma at a low concentration level, plasma containing 2,000 μg/mL of the component, control plasma 0.079) | Ratio (Area/IS Area) NE (plasma at a low concentration level, plasma containing 2,000 μg/mL of the component, control plasma 0.219) | Ratio (Area/IS Area) DA (plasma at a low concentration level, plasma containing 2,000 μg/mL of the component, control plasma 0.233)
